# According to PubChem BioAssay AID179 (DTP/NCI, 2004):
# The source made the active and inactive calls.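 Rule for the calls: active = compounds giving half or more protection of infected cells from virus-caused growth loss, again on retest; inactive = the rest.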
# Tested on: CEM cells HIV-1 protection, formazan growth assay
# Assay: NCI AIDS Antiviral Assay
# Details: for IC50: measured here: growth of uninfected CEM cells
# Summary of the method: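 Screen of anti-HIV-1 activity in human CEM cells using a formazan-based growth measurement at five drug concentrations. Hits with 50% or greater protection were repeated, and confirmation required reproducible complete protection.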
SMILES,EC50,IC50,outcome
C(=C\c1c[nH]c2ccccc12)/c1nccc2ccccc12,0.0631 µM,107 µM,–
O[C@@H]1CCN(Cc2ccccc2)C[C@@H]1CNC12CC3CC(CC(C3)C1)C2,> 72.4 µM,> 72.4 µM,–
O=[N+]([O-])c1ccc(NC(=S)N=Nc2c(O)[nH]c3ccccc23)cc1,> 200 µM,15.5 µM,–
C=C(C)C12CC3CC/C(=N/O)C(C1)C3(N1CCOCC1)C/C2=N/O (stereo not given),> 200 µM,> 200 µM,–
CC(C)OP(=O)(OC(C)C)/C(=N/Nc1ccc([N+](=O)[O-])cc1)NNC(N)=O,> 89.1 µM,26.3 µM,–
COc1ccc2[nH]c3c(cnn4cnnc34)c2c1,–,–,inactive
NC(=O)C#CC#CC#CCO,> 891 µM,0.479 µM,–
CCOC(=O)Nn1c(C)cc(C(=O)OC)c1C,–,–,inactive
Cc1ccc(-c2sc(-c3ccc(C)cc3)c3c2C2CCC3C2)cc1,> 200 µM,> 200 µM,–
NCCS/C=C\C(=O)OCc1ccc(Br)cc1,> 708 µM,64.6 µM,–
CCOC(=O)C1C(=O)CC(O)(c2ccccc2)C(C(=O)OCC)C1c1ccc(N(C)C)cc1 (stereo not given),> 200 µM,4.07 µM,–
Clc1ccc(CCn2cncn2)c(Cl)c1,> 891 µM,437 µM,–
c1csc(-c2cscc2-c2cccs2)c1,> 200 µM,37.2 µM,–
CC1(C)CC(=O)C(C(=O)C(=O)NC2=C(Cl)C(=O)c3ccccc3C2=O)C(=O)C1,> 17.8 µM,–,–
CCOc1ccc(/C(C)=N/NC(N)=S)cc1,–,–,inactive
CC(O)CC(O)(C(F)(F)F)C(F)(F)F (stereo not given),> 200 µM,> 200 µM,–
CCC12C=CCN3CCC4(c5cc(C6(C(=O)OC)CCCCCc7c6[nH]c6ccccc76)c(OC)cc5N(C)C4C(O)(C(=O)OC)C1OC(C)=O)C32 (stereo not given),> 25.1 µM,4.37 µM,–
O=C1c2cccc3cccc(c23)C(=O)N1C(Cc1ccccc1)c1ccccc1 (stereo not given),> 200 µM,> 200 µM,–
CCCCCC(=O)Nc1n[nH]nc1C#N,> 200 µM,> 200 µM,–

SMILES,EC50,IC50,outcome
C/C=C/C=Nc1c(C#N)c2n(c1C(=O)Nc1ccc(S(N)(=O)=O)cc1)CCC2,> 200 µM,11 µM,–
O=c1[nH]c(=O)c2nnoc2[nH]1,> 200 µM,75.9 µM,–
CO/C=C(\Br)c1ccc2c(c1)OCO2,–,–,inactive
Fc1ccc2c3c([nH]c2c1)CCNC3,> 200 µM,> 200 µM,–
C[n+]1c2ccccc2cc2c(CNC(CCCN=C(N)N)C(=O)O)cccc21 (stereo not given),–,–,inactive
COCN1C(=O)[C@@H]2CCCN2C(=O)c2cc(OC)c(Cc3ccccc3)cc21,> 200 µM,> 200 µM,–
CSc1nnc(COc2ccc(Cl)cc2)o1,> 263 µM,> 263 µM,–
Cc1ccc(C(c2c(O)c3ccccc3n(-c3ccccc3)c2=O)c2c(O)c3ccccc3n(-c3ccccc3)c2=O)cc1,> 12.6 µM,> 12.6 µM,–
N#C/C(=C\c1ccc2ccccc2c1)C(=O)c1ccccc1,> 7.08 µM,> 7.08 µM,–
COC(=O)n1c(=O)n(-c2ccccc2)c(=O)n1C(=O)OC,155 µM,195 µM,–
Cc1ccc2c(n1)C(N1CCC(C)CC1)=CC(=O)C2=O,–,–,inactive
COc1ccc(Nc2cnc3cc(N)ccc3n2)cc1OC,> 603 µM,42.7 µM,–
O=C(CS(=O)(=O)c1ccccc1)c1ccccc1,> 347 µM,251 µM,–
CCc1cc(Cc2cc(CC)c(NC(=O)C3=CC(=O)CC(c4ccc(OC)cc4)O3)c(CC)c2Cl)c(Cl)c(CC)c1NC(=O)C1=CC(=O)CC(c2ccc(OC)cc2)O1 (stereo not given),–,–,inactive
CC(=O)OC1C(C)(O)[C@@H]2CC[C@H]3C4(C)CCCC(C)(C)[C@H]4CC[C@]13C2 (stereo not given in full),> 50.1 µM,> 50.1 µM,–
Cc1nc2ccc(S(=O)(=O)Nc3ccccn3)cc2c(=O)n1NS(=O)(=O)c1ccccn1,> 200 µM,> 200 µM,–
Nc1cc(N2CCCC2)nc(=O)n1Cc1ccccc1,–,–,inactive
Cc1ccc(S(=O)(=O)OCC23CCC(C2)C2CC23)cc1 (stereo not given),> 100 µM,> 100 µM,–
